Test results published in patent US9079876B2, “Imidazole derivatives and preparation method and use thereof” (Beijing Orbiepharm Co., Ltd., priority 2010, dated 2015).

Columns and labels:
COX-1 = target: T1, COX-1 (Canis lupus familiaris, UniProt Q8HZR1); test: Dog whole blood in vitro activity assay, COX-1; format: cell-based, beagle dog; conditions: read-out: IC50 (μg/mL) COX-1 (converted)
T1 construct: in vitro activity study using beagle dog whole blood was conducted; from tissue; host or cells: beagle dog whole blood (platelets, by the same method as for human blood)
T1 sequence (Q8HZR1 28-603): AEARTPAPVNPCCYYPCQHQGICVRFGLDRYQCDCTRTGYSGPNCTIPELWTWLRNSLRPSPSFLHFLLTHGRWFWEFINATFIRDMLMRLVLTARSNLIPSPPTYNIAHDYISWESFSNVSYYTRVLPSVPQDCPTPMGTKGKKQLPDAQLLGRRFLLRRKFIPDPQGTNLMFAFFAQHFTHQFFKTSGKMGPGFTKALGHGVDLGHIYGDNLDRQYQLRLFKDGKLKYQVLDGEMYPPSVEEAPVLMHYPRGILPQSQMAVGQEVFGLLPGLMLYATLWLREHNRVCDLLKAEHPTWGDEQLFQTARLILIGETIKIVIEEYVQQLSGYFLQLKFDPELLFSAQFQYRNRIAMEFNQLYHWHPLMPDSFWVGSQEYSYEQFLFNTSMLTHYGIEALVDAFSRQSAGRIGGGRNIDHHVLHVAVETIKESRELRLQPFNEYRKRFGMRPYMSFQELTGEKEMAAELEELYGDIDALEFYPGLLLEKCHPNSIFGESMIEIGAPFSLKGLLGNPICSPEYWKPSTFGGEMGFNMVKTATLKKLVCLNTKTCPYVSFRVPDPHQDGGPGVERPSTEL

[1] = target: T2, cyclooxygenase-1 (COX-1 enzyme) (Homo sapiens, UniProt P23219); test: Human whole blood in vitro activity assay, COX-1 (TXB2 by EIA); format: cell-based; conditions: read-out: IC50 (μg/mL) COX-1 (converted)
T2 construct: from tissue; host or cells: human whole blood without heparin (platelets) from healthy volunteers
T2 sequence (P23219 24-599): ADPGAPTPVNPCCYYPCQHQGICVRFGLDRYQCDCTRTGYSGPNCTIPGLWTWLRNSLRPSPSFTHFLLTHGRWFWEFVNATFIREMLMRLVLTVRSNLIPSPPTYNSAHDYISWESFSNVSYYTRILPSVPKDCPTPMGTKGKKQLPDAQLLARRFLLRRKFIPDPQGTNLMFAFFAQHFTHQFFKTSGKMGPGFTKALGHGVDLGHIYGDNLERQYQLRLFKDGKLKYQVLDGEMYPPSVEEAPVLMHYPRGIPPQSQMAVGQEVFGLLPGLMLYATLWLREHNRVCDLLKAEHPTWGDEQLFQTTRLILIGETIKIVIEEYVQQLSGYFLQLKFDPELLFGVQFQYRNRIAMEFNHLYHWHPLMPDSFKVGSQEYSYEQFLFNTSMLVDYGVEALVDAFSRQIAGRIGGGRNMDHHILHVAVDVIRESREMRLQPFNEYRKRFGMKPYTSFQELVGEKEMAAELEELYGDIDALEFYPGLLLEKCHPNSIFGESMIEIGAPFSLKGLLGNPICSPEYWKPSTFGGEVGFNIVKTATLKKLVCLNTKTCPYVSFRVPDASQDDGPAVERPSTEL
Protocol: (§1) Human whole blood in vitro activity study: inhibition of activity of cyclooxygenase-1 (COX-1 enzyme) and cyclooxygenase-2 (COX-2 enzyme) in human blood. […] The blood samples were divided into two parts: one was used for detecting COX-1 enzyme activity, and the other was used for detecting COX-2 enzyme activity. The compounds were dissolved in DMSO, and were prepared in advance into 2 μL solutions in respective concentrations of 500, 50, 5, 0.5, 0.05, 0.005, 0.0005 μg/mL. 200 μL whole blood without heparin was added in the tubes containing the compounds, and then incubated at 37° C. for 1 hour. The activity of COX-1 enzyme was detected by determining the amount of thromboxane B2 (TXB2) synthesized by platelet using an EIA kit. Samples tested without the compounds were negative controls. For COX-2, 200 μL whole blood with heparin was added in the tubes containing the compounds and in the tubes containing 10 μg/mL LPS. LPS control and blank control with solvent only were used respectively for determining the maximum value and the background value of the PGE2 produced therefrom. The samples were incubated at 37° C. for 24 hours, and then centrifuged to collect serum/plasma, which was stored at −80° C. for detection by an EIA kit. The EIA kit of Cayman Company was used, the amounts of TXB2 and PGE2 were determined in accordance to the manufacturer's instructions, and the activities of COX-1 and COX-2 were tested respectively.

[2] = target: T3, cyclooxygenase-2 (COX-2 enzyme) (Homo sapiens, UniProt P35354); test: Human whole blood in vitro activity assay, COX-2 (LPS-induced PGE2 by EIA); format: cell-based
T3 construct: from tissue; host or cells: heparinised human whole blood from healthy volunteers, stimulated with LPS
T3 sequence (P35354 18-604): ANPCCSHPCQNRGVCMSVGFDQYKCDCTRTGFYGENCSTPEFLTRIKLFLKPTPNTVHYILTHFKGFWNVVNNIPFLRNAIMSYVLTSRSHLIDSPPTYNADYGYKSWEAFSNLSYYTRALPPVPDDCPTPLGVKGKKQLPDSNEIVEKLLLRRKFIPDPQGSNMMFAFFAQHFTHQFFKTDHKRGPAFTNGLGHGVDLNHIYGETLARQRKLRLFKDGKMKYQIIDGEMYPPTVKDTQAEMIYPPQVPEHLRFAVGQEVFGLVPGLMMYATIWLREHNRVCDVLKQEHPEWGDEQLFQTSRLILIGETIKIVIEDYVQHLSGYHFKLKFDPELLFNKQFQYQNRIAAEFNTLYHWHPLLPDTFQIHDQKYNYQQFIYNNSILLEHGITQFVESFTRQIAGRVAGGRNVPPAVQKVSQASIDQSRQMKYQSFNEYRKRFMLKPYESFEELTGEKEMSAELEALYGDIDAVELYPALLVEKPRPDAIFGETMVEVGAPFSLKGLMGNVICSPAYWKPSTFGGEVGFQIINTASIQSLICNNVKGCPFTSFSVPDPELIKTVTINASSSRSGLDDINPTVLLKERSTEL
Protocol: as §1

Q: How did the IC50 (COX-1) turn out when `CS(=O)(=O)c1ccc(-n2cnc(Cl)c2-c2ccccc2)nc1` [Compound 1, 2-(4-chloro-5-phenyl-1H-imidazol-1-yl)-5-(methylsulfonyl)pyridine] was run?
A: Its IC50 is 219 µM.

Q: And the IC50 [1]?
A: The IC50 was 39.5 µM.

Q: And the IC50COX-1/IC50COX-2 [2]?
A: Its IC50COX-1/IC50COX-2 is 44.0.

Q: And the IC50 ([2]; LPS, PGE2, read-out: IC50 (μg/mL) COX-2 (converted))?
A: The IC50 was 0.899 µM.
